Test results reported in publication PMC9460261, “Need for a Standardized Translational Drug Development Platform: Lessons Learned from the Repurposing of Drugs for COVID-19” (Microorganisms, 2022).
Structures can show the parent of a compound that is named as a salt. Where two headings read alike, the source gives them in different places.

Legend:
in vitro = details: African green monkey, Selectivity Index (Vero cells)
SARS-CoV-2 in Vero cells [1] = test: microbe, parasite or virus in culture; details: Severe acute respiratory syndrome coronavirus 2, Vero
[2] = system: SARS-CoV-2 in Calu-3 cells; test: microbe, parasite or virus in culture; details: Severe acute respiratory syndrome coronavirus 2, Calu-3, read-out: Calu-3 cells Average IC50
SARS-CoV-2 [3] = format: in vivo, Syrian hamster; details: doses, frequency, duration as in Table 1
SARS-CoV-2 in Vero cells [4] = details: for IC50: * one replicate only
[5] = system: SARS-CoV-2 in Calu-3 cells; details: for IC50: read-out: Calu-3 cells Average IC50, * one replicate only
SARS-CoV-2 [6] = details: cited from earlier work; for EC50: read-out: SARS-CoV-2 EC50
[7] = female, LGV Golden Syrian, hamster, in vivo
[8] = Population PK model from satellite PK studies in hamster
[9] = read-out: VERO cells Average IC50, With Pgp pump inhibitor, 2 μM CP-100356, * one replicate only
[10] = read-out: VERO cells Average IC50, Without Pgp pump inhibitor, * one replicate only
[11] = read-out: VERO cells Average IC50, With Pgp pump inhibitor, 2 μM CP-100356
[12] = read-out: VERO cells Average IC50, Without Pgp pump inhibitor
[13] = hamster of the study's median weight (80-131 g)

Compound: O=C(Nc1ncc([N+](=O)[O-])s1)c1ccccc1O [Tizoxanide, tizoxanide]
- selectivity ratio (in vitro; With Pgp pump inhibitor, T: toxicity observed): > 21.7
- selectivity ratio (in vitro; Without Pgp pump inhibitor, T: toxicity observed): > 7
- IC50 (SARS-CoV-2 in Vero cells [1]; [9]): 2.3 µM
- IC50 (SARS-CoV-2 in Vero cells [1]; [10]): 7.2 µM
- IC50 [2]: 14.3 µM

Compound: CN(C)C(=O)COC(=O)Cc1ccc(OC(=O)c2ccc(NC(=N)N)cc2)cc1 [Camostat mesylate, camostat mesylate]
- Activity in SARS-CoV-2 Hamster Model (SARS-CoV-2 [3]): No
- Activity In Vitro; Potency EC50 or IC50 < 10 µM; Vero Cells (SARS-CoV-2 in Vero cells [4]): No (Potency EC50 or IC50 < 10 µM)
- Activity In Vitro; Potency EC50 or IC50 < 10 µM; Calu-3 Cells [5]: Yes (Potency EC50 or IC50 < 10 µM)
- EC50 (SARS-CoV-2 [6]; host cell Calu-3): 83 nM
- IC50 (SARS-CoV-2 in Vero cells [1]; [9]): > 50 µM
- IC50 (SARS-CoV-2 in Vero cells [1]; [10]): > 50 µM
- IC50 [2]: 3 µM

Compound: CCNCc1cc(Nc2ccnc3cc(Cl)ccc23)ccc1O [N-desethylamodiaquine]
- CL/F, elimination clearance, population estimate (%RSE) [7]: 804 (9.48%) mL/h
- Q/F (Q1/F), inter-compartment clearance, population estimate (%RSE) [7]: 229 (27.6%) mL/h
- VC/F, central volume of distribution, population estimate (%RSE) [7]: 1890 (42.2%) mL
- VP/F, peripheral volume of distribution, population estimate (%RSE) [7]: 3050 (77.1%) mL

Compound: CN(Cc1cc(Br)cc(Br)c1N)C1CCCCC1 [Bromhexine, bromhexine]
- EC50 (SARS-CoV-2 [6]; host cell Vero E6, ref 47): 21700 nM

Compound: OC(c1cc(C(F)(F)F)nc2c(C(F)(F)F)cccc12)C1CCCCN1 (stereo not drawn) [Mefloquine, mefloquine]
- Activity In Vitro; Potency EC50 or IC50 < 10 µM; Vero Cells (SARS-CoV-2 in Vero cells [4]): Yes (Potency EC50 or IC50 < 10 µM)
- Activity In Vitro; Potency EC50 or IC50 < 10 µM; Calu-3 Cells [5]: No (Potency EC50 or IC50 < 10 µM)
- selectivity ratio (in vitro; With Pgp pump inhibitor): 6.2
- selectivity ratio (in vitro; Without Pgp pump inhibitor): 3.6
- IC50 (SARS-CoV-2 in Vero cells [1]; [9]): 2.8 µM
- IC50 (SARS-CoV-2 in Vero cells [1]; [10]): 5.7 µM
- IC50 [2]: 13.2 µM

Compound: CC1(C)C(=O)N(c2ccc(C#N)c(C(F)(F)F)c2F)C(=S)N1c1ccc(CCCc2ncco2)nc1 [Proxalutamide, proxalutamide]
- Activity In Vitro; Potency EC50 or IC50 < 10 µM; Vero Cells (SARS-CoV-2 in Vero cells [4]): No (Potency EC50 or IC50 < 10 µM)
- Selectivity Index (Vero cells), With Pgp pump inhibitor (SARS-CoV-2 in Vero cells [4]; T: toxicity observed): < 2.3
- Selectivity Index (Vero cells), Without Pgp pump inhibitor (SARS-CoV-2 in Vero cells [4]; T: toxicity observed): < 1.6
- IC50 (SARS-CoV-2 in Vero cells [4]; [11]): 21.5 µM
- IC50 (SARS-CoV-2 in Vero cells [4]; [12]): 30.3 µM
- Activity In Vitro; Potency EC50 or IC50 < 10 µM; Calu-3 Cells [5]: No (Potency EC50 or IC50 < 10 µM)
- IC50 [5]: 14.5 µM
- EC50 (SARS-CoV-2 [6]; host cell LNCaP Cells): 97 nM

Compound: Cc1c(-c2ccc(-c3ccccc3F)cc2)nc2ccc(F)cc2c1C(=O)O [Brequinar, brequinar]
- EC50 (SARS-CoV-2 [6]; host cell A549-ACE): 50 nM
- EC50 (SARS-CoV-2 [6]; host cell Caco-2): > 50000 nM
- EC50 (SARS-CoV-2 [6]; host cell Huh7.5): 500 nM
- EC50 (SARS-CoV-2 [6]; host cell Vero E6, ref 51): 120 nM

Compound: C[C@@]1(F)[C@H](O)[C@@H](CO)O[C@H]1n1ccc(=O)[nH]c1=O [GS-331007]
- CL/F, elimination clearance, population estimate (%RSE) [8, 13]: 390 (17.4) mL/h
- VC/F, central volume of distribution, population estimate (%RSE) [8, 13]: 2750 (17.0) mL

Compound: ivermectin
- Activity in SARS-CoV-2 Hamster Model (SARS-CoV-2 [3]): No
- Activity In Vitro; Potency EC50 or IC50 < 10 µM; Vero Cells (SARS-CoV-2 in Vero cells [4]): Yes (Potency EC50 or IC50 < 10 µM)
- IC50 (SARS-CoV-2 in Vero cells [4]; [11]): 1.1 µM
- IC50 (SARS-CoV-2 in Vero cells [4]; [12]): 4.3 µM
- Activity In Vitro; Potency EC50 or IC50 < 10 µM; Calu-3 Cells [5]: Yes (Potency EC50 or IC50 < 10 µM)
- IC50 [5]: 8.9 µM
- IC50 (SARS-CoV-2 [6]; Vero-hSLAM cells, read-out: IC50, medium): 2800 nM
- EC50 (SARS-CoV-2 [6]; host cell Vero E6, ref 22): 1700 nM
- EC50 (SARS-CoV-2 [6]; host cell Vero E6, ref 38): 2300 nM
- EC50 (SARS-CoV-2 [6]; host cell not given): 2000 nM
- Effect of SC administration on F ([8]; compared to PO administration): 0.656 (15.7)
- Effect of SC administration on KA ([8]; compared to PO administration): 2.05 (50.0)
- Effect of SC administration on MTT ([8]; compared to PO administration): -0.85 (5.61)
- MTT, mean transit time, population estimate (%RSE) ([8]; hamster 120 g): 0.478 (7.42) h
- CL/F, elimination clearance, population estimate (%RSE) [8, 13]: 13.3 (0.160) mL/h
- KA, absorption rate constant, population estimate (%RSE) [8, 13]: 0.531 (8.35) h-1
